The target in test [1] is T1, recombinant human Dopamine Subtype D2s receptors (Homo sapiens, UniProt P14416).
T1 construct: purchased Perkin Elmer
Nature of the test: Dopamine D2 selectivity binding assay ([3H]-spiperone). Conditions: inhibition of [3H]-spiperone (0.16 nM) binding; for IC50: read-out: D2 bind pIC50 (converted). An outline of the steps:
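Displacement of [3H]-spiperone (0.16 nM final) from human D2s receptor membranes in pH 7.4 HEPES buffer over 2 h at room temperature, then filtration and scintillation counting. Specific binding taken as vehicle minus 10 μM haloperidol wells. Potency given as pIC50 from a four-parameter logistic curve.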

Test [2] deals with T2, recombinant human adrenergic beta 1 receptors (Homo sapiens, UniProt P08588).
T2 construct: purchased Euroscreen
Nature of the test: Adrenergic β1 selectivity binding assay ([125I]-Iodocyanopindolol). The following applies: inhibition of [125I]-Iodocyanopindolol (0.036 nM) binding; for IC50: read-out: β1 bind p IC50 (converted). An outline of the steps:
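Displacement of [^125I]-Iodocyanopindolol (0.036 nM final) from human β1 receptor membranes, 2 hours at room temperature, pH 7.4 HEPES/EDTA/NaCl buffer. After filtration, scintillation counting; NSB set with 10 μM propranolol and subtracted. Four-parameter logistic fitting gave pIC50.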

Test [3] deals with T3, recombinant human α1D receptor (Homo sapiens, UniProt P25100).
T3 construct: expressed in transfected cells; host or cells: HEK293
T3 sequence (P25100 1-572): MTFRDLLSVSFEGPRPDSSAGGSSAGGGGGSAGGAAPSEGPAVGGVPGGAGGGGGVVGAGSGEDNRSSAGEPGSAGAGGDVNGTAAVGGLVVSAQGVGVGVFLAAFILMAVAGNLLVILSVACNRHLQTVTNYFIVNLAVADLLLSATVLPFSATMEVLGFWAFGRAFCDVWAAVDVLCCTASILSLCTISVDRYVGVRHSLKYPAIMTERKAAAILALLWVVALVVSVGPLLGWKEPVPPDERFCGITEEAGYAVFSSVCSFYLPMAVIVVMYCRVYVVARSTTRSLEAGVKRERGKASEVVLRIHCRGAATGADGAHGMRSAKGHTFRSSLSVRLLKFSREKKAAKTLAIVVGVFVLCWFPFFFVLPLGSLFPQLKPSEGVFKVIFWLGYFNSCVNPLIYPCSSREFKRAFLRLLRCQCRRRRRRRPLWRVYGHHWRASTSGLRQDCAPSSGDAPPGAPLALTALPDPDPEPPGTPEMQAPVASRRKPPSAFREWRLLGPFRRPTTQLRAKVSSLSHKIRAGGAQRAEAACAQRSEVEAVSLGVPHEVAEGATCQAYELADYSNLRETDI
Nature of the test: Adrenergic α1D selectivity binding assay ([3H]-prazosin). The following applies: inhibition of [3H]-prazosin (0.3 nM) binding, HEK293 membranes; for IC50: read-out: α1 bind pIC50 (converted). Put shortly: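 Displacement of [3H]-prazosin (0.3 nM) from recombinant human α1D receptor in HEK293-cell membranes, 2 h at room temperature, pH 7.4 HEPES/EDTA/gelatin buffer. Filtration and scintillation counting, non-specific binding set with 10 μM BMY7378; four-parameter logistic fit gives pIC50.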

Where a name gives a salt, the structure may show the parent alone.

Data on 16 compounds can be found in patent publication US20100022491A1, “4-HYDROXY-2-OXO-2,3-DIHYDRO-1,3-BENZOTHIAZOL-7YL COMPOUNDS FOR MODULATION OF B2-ADRENORECEPTOR ACTIVITY” (ASTRAZENECA AB, priority 2006, published 2010).

T1 sequence (P14416 1-414 isoform P14416-2): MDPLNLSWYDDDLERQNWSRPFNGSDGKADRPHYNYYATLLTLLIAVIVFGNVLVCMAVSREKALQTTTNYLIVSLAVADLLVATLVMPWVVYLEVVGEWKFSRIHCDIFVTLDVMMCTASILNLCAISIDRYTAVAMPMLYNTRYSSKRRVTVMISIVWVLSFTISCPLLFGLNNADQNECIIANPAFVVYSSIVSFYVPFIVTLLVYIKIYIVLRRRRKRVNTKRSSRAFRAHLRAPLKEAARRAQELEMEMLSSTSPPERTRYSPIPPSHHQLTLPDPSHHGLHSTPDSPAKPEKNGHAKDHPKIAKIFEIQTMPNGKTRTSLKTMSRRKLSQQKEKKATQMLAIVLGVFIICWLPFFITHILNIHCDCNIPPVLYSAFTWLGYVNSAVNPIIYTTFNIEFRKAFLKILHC
T2 sequence (P08588 whole entry): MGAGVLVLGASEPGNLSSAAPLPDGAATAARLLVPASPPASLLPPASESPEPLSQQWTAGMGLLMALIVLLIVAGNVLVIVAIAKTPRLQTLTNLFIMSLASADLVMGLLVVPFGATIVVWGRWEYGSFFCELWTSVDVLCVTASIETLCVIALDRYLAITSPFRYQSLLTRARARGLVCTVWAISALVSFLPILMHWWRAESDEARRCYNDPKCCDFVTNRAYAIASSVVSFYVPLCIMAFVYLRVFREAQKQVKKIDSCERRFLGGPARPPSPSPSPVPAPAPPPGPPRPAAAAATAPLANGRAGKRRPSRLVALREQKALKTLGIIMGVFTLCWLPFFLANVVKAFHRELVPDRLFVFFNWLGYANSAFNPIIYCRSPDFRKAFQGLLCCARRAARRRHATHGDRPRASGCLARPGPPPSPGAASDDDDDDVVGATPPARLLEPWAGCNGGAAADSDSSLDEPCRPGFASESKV

Take `O=C(CCNCCc1ccc(Cl)s1)N(CCNCCc1ccc(O)c2[nH]c(=O)sc12)C1CCCCC1` [Example 72, N^3-[2-(5-Chloro-2-thienyl)ethyl]-N^1-cyclohexyl-N^1-(2-{[2-(4-hydroxy-2-oxo-2,3-dihydro-1,3-benzothiazol-7-yl)ethyl]amino}ethyl)-β-alaninamide bis-trifluoroacetic acid salt]: the IC50 in test [1] is 126 nM; in test [2], 3160 nM; in test [3], 398 nM.

As for `O=C(CCNCCc1ccc(F)c(F)c1)N(CCNCCc1ccc(O)c2[nH]c(=O)sc12)C1CCCCC1` [Example 73, N^1-Cyclohexyl-N^3-[2-(3,4-difluorophenyl)ethyl]-N^1-(2-{[2-(4-hydroxy-2-oxo-2,3-dihydro-1,3-benzothiazol-7-yl)ethyl]amino}ethyl)-β-alaninamide bis-trifluoroacetic acid salt], the IC50 in test [1] was 200 nM; in test [2], 7940 nM; in test [3], 398 nM.

On to `O=C(CCNC[C@@H](O)c1ccccc1)N(CCNCCc1ccc(O)c2[nH]c(=O)sc12)C1CCCCC1` [Example 74, N^1-Cyclohexyl-N^1-(2-{[2-(4-hydroxy-2-oxo-2,3-dihydro-1,3-benzothiazol-7-yl)ethyl]amino}ethyl)-N^3-[(2S)-2-hydroxy-2-phenylethyl]-β-alaninamide bis-trifluoroacetic acid salt], for which the results for the IC50 in test [1], in test [2] and in test [3] were 501 nM, 3160 nM and 251 nM, respectively.

`O=C(CCNC[C@H](O)c1ccccc1)N(CCNCCc1ccc(O)c2[nH]c(=O)sc12)C1CCCCC1` [Example 75, N^1-Cyclohexyl-N^1-(2-{[2-(4-hydroxy-2-oxo-2,3-dihydro-1,3-benzothiazol-7-yl)ethyl]amino}ethyl)-N^3-[(2R)-2-hydroxy-2-phenylethyl]-β-alaninamide bis-trifluoroacetic acid salt]: the IC50 in test [1] is 398 nM; in test [2], 631 nM; in test [3], 251 nM.

Take `O=C(CCNCCc1ccc2c(c1)OCO2)N(CCNCCc1ccc(O)c2[nH]c(=O)sc12)C1CCCCC1` [Example 76, N^3-[2-(1,3-Benzodioxol-5-yl)ethyl]-N^1-cyclohexyl-N^1-(2-{[2-(4-hydroxy-2-oxo-2,3-dihydro-1,3-benzothiazol-7-yl)ethyl]amino}ethyl)-β-alaninamide bis-trifluoroacetic acid salt]: the IC50 in test [1] is 200 nM; in test [2] it was 3980 nM; in test [3], 158 nM.

For `O=C(CCNCCc1nc2ccccc2[nH]1)N(CCNCCc1ccc(O)c2[nH]c(=O)sc12)C1CCCCC1` [Example 77, N^3-[2-(1H-Benzimidazol-2-yl)ethyl]-N^1-cyclohexyl-N^1-(2-{[2-(4-hydroxy-2-oxo-2,3-dihydro-1,3-benzothiazol-7-yl)ethyl]amino}ethyl)-β-alaninamide tris-trifluoroacetic acid salt], the IC50 was 158 nM in test [1], 6310 nM in test [2] and 251 nM in test [3].

On to `O=C(CCNCCc1cc(F)cc(F)c1)N(CCNCCc1ccc(O)c2[nH]c(=O)sc12)C1CCCCC1` [Example 78, N^1-Cyclohexyl-N^3-[2-(3,5-difluorophenyl)ethyl]-N^1-(2-{[2-(4-hydroxy-2-oxo-2,3-dihydro-1,3-benzothiazol-7-yl)ethyl]amino}ethyl)-β-alaninamide bis-trifluoroacetic acid salt], for which the values for the IC50 in test [1], in test [2] and in test [3] were 316 nM, 3980 nM and 251 nM, respectively.

Turning to `O=C(CCNCCc1cc(F)ccc1F)N(CCNCCc1ccc(O)c2[nH]c(=O)sc12)C1CCCCC1` [Example 79, N^1-Cyclohexyl-N^3-[2-(2,5-difluorophenyl)ethyl]-N^1-(2-{[2-(4-hydroxy-2-oxo-2,3-dihydro-1,3-benzothiazol-7-yl)ethyl]amino}ethyl)-β-alaninamide bis-trifluoroacetic acid salt], the results for the IC50 in test [1], in test [2] and in test [3] were 158 nM, 3160 nM and 63.1 nM, respectively.

`O=C(CCNCCc1cccc(F)c1F)N(CCNCCc1ccc(O)c2[nH]c(=O)sc12)C1CCCCC1` [Example 81, N^1-Cyclohexyl-N^3-[2-(2,3-difluorophenyl)ethyl]-N^1-(2-{[2-(4-hydroxy-2-oxo-2,3-dihydro-1,3-benzothiazol-7-yl)ethyl]amino}ethyl)-β-alaninamide bis-trifluoroacetic acid salt]: the values for the IC50 in test [1], in test [2] and in test [3] were 316 nM, 6310 nM and 200 nM, respectively.

For `O=C(CCNCCc1cccc(C(F)(F)F)c1)N(CCNCCc1ccc(O)c2[nH]c(=O)sc12)C1CCCCCC1` [Example 82, N^1-Cycloheptyl-N^1-(2-{[2-(4-hydroxy-2-oxo-2,3-dihydro-1,3-benzothiazol-7-yl)ethyl]amino}ethyl)-N^3-{2-[3-(trifluoromethyl)phenyl]ethyl}-β-alaninamide bis-trifluoroacetic acid salt], the IC50 in test [1] was 50.1 nM; in test [2] it was 2510 nM; in test [3] it was 251 nM.

Regarding `O=C(CCNCCc1cc(F)ccc1F)N(CCNCCc1ccc(O)c2[nH]c(=O)sc12)C1CCCCCC1` [Example 83, N^1-Cycloheptyl-N^3-[2-(2,5-difluorophenyl)ethyl]-N^1-(2-{[2-(4-hydroxy-2-oxo-2,3-dihydro-1,3-benzothiazol-7-yl)ethyl]amino}ethyl)-β-alaninamide bis-trifluoroacetic acid salt], the results for the IC50 in test [1], in test [2] and in test [3] were 63.1 nM, 5010 nM and 63.1 nM, respectively.

For the compound `O=C(CCNCCc1c(F)cccc1F)N(CCNCCc1ccc(O)c2[nH]c(=O)sc12)C1CCCCCC1` [Example 84, N^1-Cycloheptyl-N^3-[2-(2,6-difluorophenyl)ethyl]-N^1-(2-{[2-(4-hydroxy-2-oxo-2,3-dihydro-1,3-benzothiazol-7-yl)ethyl]amino}ethyl)-β-alaninamide bis-trifluoroacetic acid salt], the figures for the IC50 in test [1], in test [2] and in test [3] were 79.4 nM, 1000 nM and 100 nM, respectively.

Regarding `O=C(CCNCCc1cc(F)cc(F)c1)N(CCNCCc1ccc(O)c2[nH]c(=O)sc12)C1CCCCC1` [Example 92, N-Cyclohexyl-N^3-[2-(3,5-difluorophenyl)ethyl]-N-(2-{[2-(4-hydroxy-2-oxo-2,3-dihydro-1,3-benzothiazol-7-yl)ethyl]amino}ethyl)-β-alaninamide dihydrobromide salt], the “D2 bind pIC50” value in test [1] worked out at 6.5. Besides, the “β1 bind p IC50” value in test [2] came out at 5.4. For the same compound, the “α1 bind pIC50” value in test [3] was 6.6.

Take `O=C(CCNCCc1cccc(F)c1F)N(CCNCCc1ccc(O)c2[nH]c(=O)sc12)C1CCCCC1` [Example 93, N-Cyclohexyl-N^3-[2-(2,3-difluorophenyl)ethyl]-N-(2-{[2-(4-hydroxy-2-oxo-2,3-dihydro-1,3-benzothiazol-7-yl)ethyl]amino}ethyl)-β-alaninamide dihydrobromide salt]: the “D2 bind pIC50” value in test [1] is reported as 6.5. In addition, the “β1 bind p IC50” value in test [2] is listed as 5.2. Moreover, in test [3], the “α1 bind pIC50” value is 6.7.

Regarding `O=C(CCNCCc1ccc(Cl)c(Cl)c1)N(CCNCCc1ccc(O)c2[nH]c(=O)sc12)C1CCOCC1` [Example 94, N^3-[2-(3,4-Dichlorophenyl)ethyl]-N-(2-{[2-(4-hydroxy-2-oxo-2,3-dihydro-1,3-benzothiazol-7-yl)ethyl]amino}ethyl)-N-(tetrahydro-2H-pyran-4-yl)-β-alaninamide dihydrobromide salt], the “D2 bind pIC50” value in test [1] was 6.1. Besides, the “β1 bind p IC50” value in test [2] was 5.7. Besides, in test [3], the “α1 bind pIC50” value is 6.2.

Consider `O=C(CCNCCc1cccc(F)c1)N(CCNCCc1ccc(O)c2[nH]c(=O)sc12)C1CCCCCC1` [Example 95, N-Cycloheptyl-N^3-[2-(3-fluorophenyl)ethyl]-N-(2-{[2-(4-hydroxy-2-oxo-2,3-dihydro-1,3-benzothiazol-7-yl)ethyl]amino}ethyl)-β-alaninamide dihydromide salt], for which, in test [1], the “D2 bind pIC50” value amounted to 6.7. Moreover, the “β1 bind p IC50” value in test [2] is recorded as 5.5. Further, the “α1 bind pIC50” value in test [3] was determined as 6.8.
